We go through four molecules from US20230265151A1, “GIP/GLP1 CO-AGONIST COMPOUNDS” (priority 2020, published 2023).

Where two headings read alike, the source gives them in different places.

One test deals with hGLP-1R (Homo sapiens, UniProt P43220). The test is described as follows: Functional cAMP formation (HTRF) in HEK-293 clonal cells expressing hGLP-1R, 0.1% bovine casein, without or with 1.0% human serum albumin. Format: cell-based. Set-up: expressed in transfected cells. The note with it: 37° C.; for Emax: percent of maximal response to GLP-1(7-36)NH2, read-out: hGLP-1R Emax, % ± SEM; for EC50: read-out: hGLP-1R EC50, nM (SEM, n). Put shortly:
(§1)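 Readings of the HTRF 665/620 nm ratio, which falls as cAMP rises, were converted to nM cAMP using a standard curve after 30 min peptide exposure at 37° C.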
On the technique in general: Cyclic AMP is a second messenger, typically raised through Gs and lowered through Gi signalling.

The target in a further test is T1, hGIPR (Homo sapiens, UniProt P48546).
T1 construct: expressed in transfected cells
T1 sequence (P48546 22-466): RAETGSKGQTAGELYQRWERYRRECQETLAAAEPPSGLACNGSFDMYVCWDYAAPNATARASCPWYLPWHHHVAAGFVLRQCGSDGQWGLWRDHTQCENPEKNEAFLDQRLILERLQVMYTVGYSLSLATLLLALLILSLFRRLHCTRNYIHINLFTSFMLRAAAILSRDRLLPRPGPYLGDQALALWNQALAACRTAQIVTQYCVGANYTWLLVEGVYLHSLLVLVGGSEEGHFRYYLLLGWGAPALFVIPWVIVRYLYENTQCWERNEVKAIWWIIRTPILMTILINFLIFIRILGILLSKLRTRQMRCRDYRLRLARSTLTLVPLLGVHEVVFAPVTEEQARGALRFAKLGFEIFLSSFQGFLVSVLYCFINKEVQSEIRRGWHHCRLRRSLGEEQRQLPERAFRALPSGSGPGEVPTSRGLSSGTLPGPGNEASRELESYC
As to the kind of experiment: Functional cAMP formation (HTRF) in HEK-293 clonal cells expressing hGIPR, 0.1% bovine casein, without or with 1.0% human serum albumin. The note with it: 37° C.; for Emax: percent of maximal response to GIP(1-42)NH2, read-out: hGIPR Emax, % ± SEM; for EC50: geometric mean, read-out: hGIPR EC50, nM (SEM, n). It is filed as cell-based. Put shortly: as §1

The target of the next test is T2, hGCGR (Homo sapiens, UniProt P47871).
T2 construct: expressed in transfected cells
As to the kind of experiment: Functional cAMP formation (HTRF) in HEK-293 clonal cells expressing hGCGR, 0.1% bovine casein, without or with 1.0% human serum albumin. It is filed as cell-based. The conditions noted are these: read-out: hGCGR EC50, nM (SEM, n). In short, it runs like this: as §1

In test [1] the target is T3, human GIP receptor (hGIPR) (Homo sapiens, UniProt P48546).
T3 construct: expressed in transfected cells; crude membranes
T3 sequence (P48546 22-466): T1 sequence (P48546 22-466)
As to the kind of experiment: [125I]-GIP binding, SPA with membranes of CHO cells expressing hGIPR. The conditions noted are these: human GIPR; geometric mean (SEM, n); read-out: Binding Affinity Ki, nM (SEM, n) hGIPR.

The target of test [2] is T4, human GLP-1 receptor (hGLP-1R) (Homo sapiens, UniProt P43220).
T4 construct: expressed in transfected cells; crude membranes
As to the kind of experiment: [125I]-GLP-1 binding, SPA with membranes of HEK293 cells expressing hGLP-1R. The conditions noted are these: human GLP-1R; geometric mean (SEM, n); read-out: Binding Affinity Ki, nM (SEM, n) hGLP-1R.

[3] abbreviates: HEK293, 0.1% bovine casein and 1.0% human serum albumin.
Where [4] appears, read: HEK293, cAMP, 0.1% bovine casein, arithmetic mean.
[5] abbreviates: cAMP, 0.1% bovine casein (no human serum albumin), geometric mean.
The mark [6] stands for this setting: cAMP, 0.1% bovine casein (no human serum albumin).
Where [7] appears, read: 0.1% bovine casein and 1.0% human serum albumin, 37° C., geometric mean.
[8] abbreviates: cAMP, 37° C., 0.1% bovine casein (no human serum albumin), geometric mean.
The mark [9] stands for this setting: HEK293, cAMP, 0.1% bovine casein and 1.0% human serum albumin.
Setting [10] is: 0.1% bovine casein and 1.0% human serum albumin.

T4 sequence (P43220 24-463): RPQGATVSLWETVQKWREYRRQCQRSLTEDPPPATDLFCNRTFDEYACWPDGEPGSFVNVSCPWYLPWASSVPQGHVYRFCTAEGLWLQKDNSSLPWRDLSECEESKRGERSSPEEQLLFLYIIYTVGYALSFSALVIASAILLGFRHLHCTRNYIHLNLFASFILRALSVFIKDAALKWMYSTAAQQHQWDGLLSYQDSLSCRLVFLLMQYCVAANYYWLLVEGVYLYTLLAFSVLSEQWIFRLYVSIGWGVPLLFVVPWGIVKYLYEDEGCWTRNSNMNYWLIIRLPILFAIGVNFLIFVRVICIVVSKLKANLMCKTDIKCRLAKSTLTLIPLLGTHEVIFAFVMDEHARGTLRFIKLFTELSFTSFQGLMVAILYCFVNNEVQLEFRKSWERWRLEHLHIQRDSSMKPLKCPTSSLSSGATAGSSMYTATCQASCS
Sequence of hGLP-1R (P43220 24-463): as above
T2 sequence (P47871 26-477): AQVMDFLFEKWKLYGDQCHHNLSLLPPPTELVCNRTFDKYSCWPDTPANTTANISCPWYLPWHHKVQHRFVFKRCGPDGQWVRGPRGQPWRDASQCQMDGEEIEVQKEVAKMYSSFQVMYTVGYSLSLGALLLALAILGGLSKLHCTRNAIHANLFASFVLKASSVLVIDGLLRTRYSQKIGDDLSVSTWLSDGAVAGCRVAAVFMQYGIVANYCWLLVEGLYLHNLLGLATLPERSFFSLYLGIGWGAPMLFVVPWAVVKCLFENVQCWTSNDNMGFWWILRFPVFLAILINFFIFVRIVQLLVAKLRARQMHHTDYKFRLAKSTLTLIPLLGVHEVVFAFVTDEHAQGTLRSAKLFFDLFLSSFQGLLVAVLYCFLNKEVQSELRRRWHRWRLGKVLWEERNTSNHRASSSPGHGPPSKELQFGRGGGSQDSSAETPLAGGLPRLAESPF

The term Emax denotes the greatest response seen or fitted, relative to the assay's reference. In general, EC50 refers to the concentration needed to bring the measured effect to its halfway point. Broadly, the Ki is a dissociation constant, usually derived from enzyme kinetics or from competition with a known ligand. Regarding `CCCCCCCCCCCC(=O)N[C@@H](CCC(=O)NCCOCCOCC(=O)NCCOCCOCC(=O)NCCCC[C@H](NC(=O)[C@H](CCCN)NC(=O)[C@H](CC(=O)O)NC(=O)[C@H](CC(C)C)NC(=O)[C@](C)(CC(C)C)NC(=O)[C@@H](NC(=O)C(C)(C)NC(=O)[C@H](Cc1ccncc1)NC(=O)[C@H](CC(=O)O)NC(=O)[C@H](CO)NC(=O)[C@@H](NC(=O)[C@](C)(Cc1ccccc1F)NC(=O)[C@@H](NC(=O)CNC(=O)[C@H](CCC(=O)O)NC(=O)C(C)(C)NC(=O)[C@@H](N)Cc1ccc(O)cc1)[C@@H](C)O)[C@@H](C)O)[C@@H](C)CC)C(=O)N[C@@H](C)C(=O)N[C@@H](CCC(N)=O)C(=O)NC(C)(C)C(=O)N[C@@H](CCCCNC(=O)COCCOCCNC(=O)COCCOCCNC(=O)CC[C@H](NC(=O)CCCCCCCCCCC)C(=O)O)C(=O)N[C@@H](Cc1ccccc1)C(=O)N[C@H](C(=O)N[C@H](CCC(=O)O)C(=O)N[C@@](C)(Cc1ccc(O)cc1)C(=O)N[C@@H](CC(C)C)C(=O)N[C@H](C(=O)N[C@@H](CCC(=O)O)C(=O)NCC(=O)NCC(=O)N1CCC[C@H]1C(=O)N[C@@H](CO)C(=O)N[C@@H](CO)C(=O)NCC(=O)N[C@@H](C)C(=O)N1CCC[C@H]1C(=O)N1CCC[C@H]1C(=O)N1CCC[C@H]1C(=O)N[C@@H](CO)C(N)=O)[C@@H](C)CC)[C@@H](C)CC)C(=O)O` [Example 322], the maximal response (Emax) came to 94.5% at hGLP-1R (setting [3]), 100% on hGLP-1R (setting [4]) and 89.7% at hGIPR (setting [3]). Further, the EC50 at hGLP-1R (setting [5]) was 0.144 nM; at hGIPR (setting [6]) it was 0.00937 nM; at hGCGR (setting [7]), over 9950 nM; on hGCGR (setting [8]), over 9950 nM. Further, the figures for the Ki in test [1] and in test [2] were 0.0162 nM and 0.234 nM, respectively.

As for `CCCCCCCCCCCC(=O)N[C@@H](CCC(=O)NCCOCCOCC(=O)NCCOCCOCC(=O)NCCOCCOCC(=O)NCCCC[C@H](NC(=O)[C@H](CO)NC(=O)[C@@H]1CCCN1C(=O)[C@@H]1CCCN1C(=O)[C@@H]1CCCN1C(=O)[C@H](C)NC(=O)CNC(=O)[C@H](CO)NC(=O)[C@H](CO)NC(=O)[C@@H]1CCCN1C(=O)CNC(=O)CNC(=O)[C@H](CCC(=O)O)NC(=O)[C@@H](NC(=O)[C@H](CC(C)C)NC(=O)[C@](C)(Cc1ccc(O)cc1)NC(=O)[C@@H](CCC(=O)O)NC(=O)[C@@H](NC(=O)[C@H](Cc1ccccc1)NC(=O)[C@H](CCC(=O)O)NC(=O)C(C)(C)NC(=O)[C@H](CCC(N)=O)NC(=O)[C@H](C)NC(=O)[C@H](CCCCNC(=O)COCCOCCNC(=O)COCCOCCNC(=O)COCCOCCNC(=O)CC[C@H](NC(=O)CCCCCCCCCCC)C(=O)O)NC(=O)[C@H](CCCN)NC(=O)[C@H](CC(=O)O)NC(=O)[C@H](CC(C)C)NC(=O)[C@](C)(CC(C)C)NC(=O)[C@@H](NC(=O)C(C)(C)NC(=O)[C@H](Cc1ccncc1)NC(=O)[C@H](CC(=O)O)NC(=O)[C@H](CO)NC(=O)[C@@H](NC(=O)[C@](C)(Cc1ccccc1F)NC(=O)[C@@H](NC(=O)CNC(=O)[C@H](CCC(=O)O)NC(=O)C(C)(C)NC(=O)[C@@H](N)Cc1ccc(O)cc1)[C@@H](C)O)[C@@H](C)O)[C@@H](C)CC)[C@@H](C)CC)[C@@H](C)CC)C(N)=O)C(=O)O` [Example 424], the Emax on hGLP-1R (setting [9]) came to 98.1%; at hGIPR (setting [9]), 89.5%. Moreover, the EC50 on hGLP-1R (setting [5]) is 0.0427 nM; at hGLP-1R (cAMP, 0.1% bovine casein and 1.0% human serum albumin, geometric mean (SEM, n)), 3.07 nM; at hGIPR (setting [6]), 0.00502 nM; at hGCGR (setting [8]), over 9950 nM; on hGCGR (cAMP, 37° C., 0.1% bovine casein and 1.0% human serum albumin, geometric mean (SEM, n)) it was over 9950 nM. Further, the Ki in test [1] was found to be 0.0206 nM; in test [2], 0.219 nM.

Regarding `CCCCCCCCCCCCCCCC(=O)N[C@@H](CCC(=O)NCCOCCOCC(=O)NCCOCCOCC(=O)NCCCC[C@H](NC(=O)[C@H](CCCN)NC(=O)[C@H](CC(=O)O)NC(=O)[C@H](CC(C)C)NC(=O)[C@](C)(CC(C)C)NC(=O)[C@@H](NC(=O)[C@H](CO)NC(=O)[C@H](Cc1ccncc1)NC(=O)[C@H](CC(=O)O)NC(=O)[C@H](CO)NC(=O)[C@@H](NC(=O)[C@](C)(Cc1ccccc1F)NC(=O)[C@@H](NC(=O)CNC(=O)[C@H](CCC(=O)O)NC(=O)C(C)(C)NC(=O)[C@@H](N)Cc1ccc(O)cc1)[C@@H](C)O)[C@@H](C)O)[C@@H](C)CC)C(=O)N[C@@H](C)C(=O)N[C@@H](CCC(N)=O)C(=O)NC(C)(C)C(=O)N[C@@H](CCC(=O)O)C(=O)N[C@@H](Cc1ccccc1)C(=O)N[C@H](C(=O)N[C@H](CCC(=O)O)C(=O)N[C@@](C)(Cc1ccc(O)cc1)C(=O)N[C@@H](CC(C)C)C(=O)N[C@H](C(=O)N[C@@H](CCCCNC(=O)COCCOCCNC(=O)COCCOCCNC(=O)CC[C@H](NC(=O)CCCCCCCCCCCCCCC)C(=O)O)C(=O)NCC(=O)NCC(=O)N1CCC[C@H]1C(=O)N[C@@H](CO)C(=O)N[C@@H](CO)C(=O)NCC(=O)N[C@@H](C)C(=O)N1CCC[C@H]1C(=O)N1CCC[C@H]1C(=O)N1CCC[C@H]1C(=O)N[C@@H](CO)C(N)=O)[C@@H](C)CC)[C@@H](C)CC)C(=O)O` [Example 23], the EC50 at hGLP-1R (0.1% bovine casein and 1.0% human serum albumin, geometric mean) was 1.98 nM; on hGIPR (setting [10]), 0.623 nM; on hGCGR (setting [7]), over 9950 nM; at hGCGR (cAMP, incubated at 37° C., 0.1% bovine casein (no human serum albumin), geometric mean), over 9950 nM. Also, the Emax on hGIPR (setting [3]) was 95.3 ± 0.863%. The inhibition constant Ki in test [1] was 0.0238 nM; in test [2], 0.251 nM.

Turning to `CCCCCCCCCCCC(=O)N[C@@H](CCC(=O)NCCOCCOCC(=O)NCCOCCOCC(=O)NCCCC[C@H](NC(=O)[C@H](CO)NC(=O)[C@@H]1CCCN1C(=O)[C@@H]1CCCN1C(=O)[C@@H]1CCCN1C(=O)[C@H](C)NC(=O)CNC(=O)[C@H](CO)NC(=O)[C@H](CO)NC(=O)[C@@H]1CCCN1C(=O)CNC(=O)CNC(=O)[C@H](CCC(=O)O)NC(=O)[C@@H](NC(=O)[C@H](CC(C)C)NC(=O)[C@](C)(Cc1ccc(O)cc1)NC(=O)[C@@H](CCC(=O)O)NC(=O)[C@@H](NC(=O)[C@H](Cc1ccccc1)NC(=O)[C@H](CCC(=O)O)NC(=O)C(C)(C)NC(=O)[C@H](CCC(N)=O)NC(=O)[C@H](C)NC(=O)[C@H](CCCCNC(=O)COCCOCCNC(=O)COCCOCCNC(=O)CC[C@H](NC(=O)CCCCCCCCCCC)C(=O)O)NC(=O)[C@H](CCCN)NC(=O)[C@H](CC(=O)O)NC(=O)[C@H](CC(C)C)NC(=O)[C@](C)(CC(C)C)NC(=O)[C@@H](NC(=O)C(C)(C)NC(=O)[C@H](Cc1ccc(O)cc1)NC(=O)[C@H](CC(=O)O)NC(=O)[C@H](CO)NC(=O)[C@@H](NC(=O)[C@](C)(Cc1ccccc1F)NC(=O)[C@@H](NC(=O)CNC(=O)[C@H](CCC(=O)O)NC(=O)C(C)(C)NC(=O)[C@@H](N)Cc1ccc(O)cc1)[C@@H](C)O)[C@@H](C)O)[C@@H](C)CC)[C@@H](C)CC)[C@@H](C)CC)C(N)=O)C(=O)O` [Example 302], the Emax on hGLP-1R (setting [3]) was 99.4%; on hGIPR (setting [3]) it was 86.3%; at hGIPR (setting [4]) it was 100%. For the same molecule, the EC50 on hGLP-1R (setting [5]) is 0.0917 nM; at hGIPR (setting [10]), 0.453 nM; on hGIPR (setting [6]) it was 0.00916 nM; on hGCGR (setting [7]) it was over 9950 nM; on hGCGR (setting [8]) it was over 9950 nM. In addition, the figures for the Ki in test [1] and in test [2] were 0.0228 nM and 0.137 nM, respectively.
